Data taken from patent publication US12404304B1, “Telomerase reverse transcriptase (TERT) expression enhancing compounds and methods for using the same” (Sierra Sciences, LLC, priority 2007, dated 2025).
Where two headings read alike, the source gives them in different places.

Experiments:
[1] = system: human TERT expression (hTERT mRNA); assay: Quantitative real-time RT-PCR of hTERT mRNA expression (Ct, transcripts) in compound-treated cells; type: cell-based
How it was run: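 Read-out is cycle threshold, the cycle at which probe fluorescence released by Taq 5′-nuclease activity crosses a set level; Ct falls as hTERT mRNA rises. cDNA of treated and untreated cells was compared, with starting transcripts quantified against a known-cDNA standard curve.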

viable cells in culture = assay: Cell viability assay (CellTiter-Glo Luminescent Cell Viability Assay, ATP quantitation, percent of vehicle control)
Procedure: Cell viability is determined using a homogeneous method, such as CellTiter-Glo® Luminescent Cell Viability Assay (Promega Corporation, Madison, WI.) to determine the number of viable cells in culture These assays are based on quantitation of the ATP present, which signals the presence of metabolically active cells. Luminescent values of compound treated cells are compared to that of cells treated with vehicle alone to determine the average cell viability as a percent of control.

SMILES	Average Number of hTERT Transcripts ([1]; quantitative real-time RT-PCR)	Average Cell Viability after 24 Hours (% DMSO) (viable cells in culture)	Average Number of hTERT Transcripts [1]
CC1=C(C(=O)OC2CCCCCC2)C(c2ccc([N+](=O)[O-])cc2)C2=C(CC(C)(C)CC2=O)N1 (centres unmarked) [compound 1246]	27.65	83.08	–
O=C(NCCc1ccncc1)C(F)(F)F [compound 1356]	5.18	101.39	–
Cc1c2c(=O)n(-c3nc4ccccc4s3)nc-2cc(O)n1Cc1ccccc1 [compound 1117]	57.88	84.16	–
COc1ccc(OCC(=O)N/N=C/c2cccc3cccnc23)cc1 [compound 1289]	21.50	84.79	–
O=C(Nc1cc([N+](=O)[O-])ccc1O)c1cccc(F)c1 [compound 1334]	31.04	75.50	–
COC(=O)c1cc(OC)c(OC)cc1NC(=S)N1CCN(C)CC1 [compound 1357]	9.07	95.29	–
CCCc1cc(=O)n2ncc(-c3cccc(Br)c3)c2[nH]1 [compound 1486]	–	73.20	51.80
COc1cc(C(=O)Nc2ccc(-c3nc4ccccc4[nH]3)cc2)ccc1OC(C)=O [compound 1330]	3.59	97.84	–
CC1(C)CC(NC(=O)c2ccc(S(=O)(=O)N3CCOCC3)cc2)CC(C)(C)N1 [compound 1363]	32.11	89.56	–
CCc1ccc(NC2c3ccccc3C(=O)N2Cc2ccc3c(c2)OCO3)cc1 (centres unmarked) [compound 1326]	8.73	86.99	–
CCOC(=O)c1c(NC(=O)CCN2C(=O)c3ccccc3C2=O)sc2c1CCC(C)C2 (centres unmarked) [compound 1543]	–	82.75	3.71
CCOC(=O)c1ccc(NC(=O)CSc2nnc(-c3ccc(OC)cc3)o2)cc1 [compound 1412]	–	92.98	6.19
Cc1ccc(NCC(=O)N/N=C\c2cc(Br)cc(Br)c2O)cc1 [compound 1273]	40.65	75.55	–
Cc1cc(=O)c2c(=O)n(-c3nc4ccccc4s3)[nH]c2[nH]1 [compound 1466]	–	75.47	97.31
CCOC(=O)c1sc(-n2nc(C)c(Cc3ccc(C)cc3)c2O)nc1C [compound 1130]	31.93	70.45	–
O=C(O)C1C2CCC(O2)C1C(=O)NCc1ccco1 (centres unmarked) [compound 1222]	15.04	102.27	–
O=C(CSc1nnc(-c2ccncc2)o1)N1CCN(c2ccccc2F)CC1 [compound 1488]	–	86.72	3.19
Cc1cc(CNC(=O)c2cc(-c3cccs3)on2)no1 [compound 1503]	–	108.11	28.94
CCCc1nnc(NC(=O)CSc2nnc(-c3cccs3)o2)s1 [compound 1200]	198.48	74.03	–
O=c1c2c([nH]c3c(-c4ccc(Cl)cc4)cnn13)CCC2 [compound 1160]	54.13	59.19	–
Oc1ccc2nc(N3CCOCC3)sc2c1 [compound 1252]	4.21	96.63	–
CCCCCOC(=O)c1c(C)oc2ccc(NS(=O)(=O)c3ccc(OC)cc3)cc12 [compound 1239]	31.94	66.47	–
Cc1csc(-n2nc(C)c(CC(=O)Nc3ccc(Br)cc3)c2O)n1 [compound 1123]	58.23	79.37	–
COc1ccccc1OCC(=O)N/N=C/c1cccc2cccnc12 [compound 1288]	18.81	78.28	–
Cc1ccc(NC(=O)CCC(=O)OCC(=O)c2ccc(Br)cc2)c(C)c1 [compound 1554]	–	71.31	46.62
O=C(NCCSCc1ccccc1)c1cc(-c2cccs2)on1 [compound 1491]	–	102.96	5.09
COc1cccc(CCNC(=O)c2cc(-c3cccs3)on2)c1 [compound 1497]	–	92.73	14.74
Cc1cc(C2CCCCC2)n(O)c(=O)c1 [compound 1250]	184.64	67.25	–

SMILES	Average Number of hTERT Transcripts ([1]; quantitative real-time RT-PCR)	Average Cell Viability after 24 Hours (% DMSO) (viable cells in culture)	Average Number of hTERT Transcripts [1]
O=C(Nc1nc(-c2ccccn2)cs1)c1cc(Cl)sc1Cl [compound 1505]	–	70.89	43.28
COc1ccc(-c2n[nH]c3c2C(c2ccc(O)cc2)N(c2ccc(Br)cc2)C3=O)cc1 (centres unmarked) [compound 1193]	3.56	22.74	–
O=c1cnnc(N/N=C/c2ccccn2)[nH]1 [compound 1285]	97.75	65.50	–
O=C(NCCCN1CCOCC1)c1cc(-c2cccs2)on1 [compound 1183]	37.61	88.76	–
CN1CCN(c2ccc(CNC(=O)c3cc(-c4cccs4)on3)cc2)CC1 [compound 1500]	–	110.86	17.14
COc1ccc(-c2nnc(SCC(=O)Nc3ccc(S(N)(=O)=O)cc3)o2)cc1 [compound 1409]	–	86.13	18.63
COc1ccc(C(NC(=O)CC(C)C)c2ccc3cccnc3c2O)cc1OC (centres unmarked) [compound 1076]	61.45	62.85	–
CCOc1ccc(N2C(=O)CC(N3CCC4(CC3)OCCO4)C2=O)cc1 (centres unmarked) [compound 1360]	16.98	108.82	–
Cc1ccc(S(=O)(=O)Nc2ccc([N+](=O)[O-])cc2)cc1 [compound 1535]	–	88.02	3.69
C=CCN1C(C(=O)c2ccccc2)=C(OC(=O)c2ccc(Cl)cc2)c2ccccc2S1(=O)=O [compound 1209]	21.73	91.26	–
Cc1ccc(C)c(NC(=O)c2ccccc2NS(=O)(=O)c2cc([N+](=O)[O-])ccc2C)c1 [compound 1539]	–	65.11	37.11
COc1cc(CCNC(=O)c2cc(-c3cccs3)on2)cc(OC)c1 [compound 1501]	–	99.31	24.13
O=C(Nc1nc(COc2ccccc2)cs1)c1sc2cc(Cl)ccc2c1Cl [compound 1410]	–	75.12	8.90
CNC(=O)C1CCN(Cc2ccc(F)cc2)CC1 [compound 1358]	7.53	111.88	–
Cn1c2c(c(=O)[nH]c1=O)C(c1ccccc1)C1=C(N2)c2ccccc2C1=O (centres unmarked) [compound 1234]	62.81	53.62	–
CCOc1cc(Br)cc(/C=N/NC(=O)COc2cccc(C)c2)c1O [compound 1262]	8.78	57.61	–
Oc1cc(-c2ccccc2)nn1-c1nc2ccccc2[nH]1 [compound 1108]	79.20	94.50	–
Cc1ccc(O)c(/C=N/NC(=O)c2ccc(Br)cc2)c1 [compound 1263]	53.36	64.51	–
O=C(Cc1ccccc1)N/N=C/c1cccc2cccnc12 [compound 1286]	29.62	75.11	–
O=c1cc(Cc2ccccc2)[nH]c2c(-c3ccccc3)c(-c3ccccc3)nn12 [compound 1148]	108.34	88.31	–
O=C(O)C1C2CCC(O2)C1C(=O)N1CCN(c2ccc(F)cc2)CC1 (centres unmarked) [compound 1223]	24.63	44.16	–
Cc1cc(C(=O)N/N=C/c2ccccc2O)c(C)o1 [compound 1282]	27.61	68.67	–
O=C(N/N=C/c1ccccc1O)c1sc2ccccc2c1Cl [compound 1267]	3.76	38.10	–
Oc1c(Br)cc(Br)cc1/C=N/Nc1ccccn1 [compound 1271]	38.63	57.70	–
CCCNC(=O)c1cc(-c2cccs2)on1 [compound 1188, 5-thiophen-2-yl-isoxazole-3-carboxylic acid propylamide]	295.07	88.71	–
CCCCOCCCNC(=O)c1cc(-c2cccs2)on1 [compound 1507]	–	102.58	58.76
Cc1csc(-n2nc(C)c(CCC(=O)Nc3ccc(Cl)cc3)c2O)n1 [compound 1134]	127.97	87.25	–
